Tests used:
A2780 [1] = test: Cytotoxicity against human A2780 cells by MTT assay; format: functional, cell-based
PANC-1 = test: Cytotoxicity against human PANC-1 cells by MTT assay; format: functional, cell-based
KB = test: Cytotoxicity against human KB cells; format: functional, cell-based
A2780 [2] = test: Induction of apoptosis in human A2780 cells assessed as necrotic cells at IC50 incubated for 48 hrs by Annexin V-FITC/PI staining based flow cytometry (reference value: 1.52 %); format: functional
A2780 [3] = test: Induction of apoptosis in human A2780 cells assessed as early apoptotic cells at IC50 incubated for 48 hrs by Annexin V-FITC/PI staining based flow cytometry (reference value: 0.72 %); format: functional
A2780 [4] = test: Induction of apoptosis in human A2780 cells assessed as fold increase in caspase-3 mRNA level at IC50 incubated for 48 hrs by RT-PCR analysis relative to control; format: functional
A2780 [5] = test: Induction of apoptosis in human A2780 cells assessed as late apoptotic cells at IC50 incubated for 48 hrs by Annexin V-FITC/PI staining based flow cytometry (reference value: 0.23 %); format: functional
A2780 [6] = test: Induction of cell cycle arrest in human A2780 cells assessed as accumulation at S phase at IC50 incubated for 48 hrs by flow cytometry (reference value: 30.6 %); format: functional
A2780 [7] = test: Induction of apoptosis in human A2780 cells assessed as fold increase in Bax mRNA level at IC50 incubated for 48 hrs by RT-PCR analysis relative to control; format: functional
A2780 [8] = test: Induction of cell cycle arrest in human A2780 cells assessed as accumulation at G2/M phase at IC50 incubated for 48 hrs by flow cytometry (reference value: 27.5 %); format: functional
A2780 [9] = test: Induction of apoptosis in human A2780 cells assessed as total apoptotic cell death at IC50 incubated for 48 hrs by Annexin V-FITC/PI staining based flow cytometry (reference value: 0.955 %); format: functional
A2780 [10] = test: Induction of apoptosis in human A2780 cells assessed as fold decrease in Bcl-2 mRNA level at IC50 incubated for 48 hrs by RT-PCR analysis relative to control; format: functional
WISH = test: Cytotoxicity against human WISH cells by MTT assay; format: functional, cell-based
A2780 [11] = test: Induction of apoptosis in human A2780 cells assessed as fold increase in caspase-9 mRNA level at IC50 incubated for 48 hrs by RT-PCR analysis relative to control; format: functional
A2780 [12] = test: Induction of apoptosis in human A2780 cells assessed as fold increase in caspase-8 mRNA level at IC50 incubated for 48 hrs by RT-PCR analysis relative to control; format: functional
A2780 [13] = test: Induction of apoptosis in human A2780 cells assessed as fold increase in P53 mRNA level at IC50 incubated for 48 hrs by RT-PCR analysis relative to control; format: functional
A2780 [14] = test: Induction of cell cycle arrest in human A2780 cells assessed as accumulation at G1 phase at IC50 incubated for 48 hrs by flow cytometry (reference value: 41.8 %); format: functional

Q: Which IC50 (A2780 [1]) does the source give for `O=C(/C=C/c1ccc(O)c(O)c1)NCCc1ccc(O)cc1` here?
A: The IC50 was 11.2 µM.

Q: And the IC50 (PANC-1)?
A: The IC50 was 7.2 µM.

Q: `COc1cc(/C=C/C(=O)NCCc2ccc(O)c(OC)c2)ccc1O` was tested. Which IC50 (A2780 [1]) did it give?
A: Its IC50 is 2.9 µM.

Q: And the IC50 (PANC-1)?
A: The IC50 was 7 µM.

Q: With `COc1cc(OC)c(-c2coc3c4c(c(OC)cc3c2=O)OC(C)(C)C=C4)cc1OC` as the compound, how does the IC50 (KB) read?
A: Its IC50 is 2000 nM.

Q: With `COc1cc(/C=C(\Oc2ccc(/C=C/C(=O)NCCc3ccc(O)cc3)cc2OC)C(=O)NCCc2ccc(O)cc2)ccc1O` as the compound, how does the IC50 (A2780 [1]) read?
A: Its IC50 is 25.1 µM.

Q: And the IC50 (PANC-1)?
A: Its IC50 is 19.3 µM.

Q: With `COCc1c(O)cc2occ(-c3ccccc3O)c(=O)c2c1OC` as the compound, how does the Activity (A2780 [2]) read?
A: Its Activity is 7.54%.

Q: And the Activity (A2780 [3])?
A: The Activity was 29.17%.

Q: And the “fold change (FC)” value (A2780 [4])?
A: The value was 8.1.

Q: And the IC50 (A2780 [1])?
A: The IC50 was 2.1 µM.

Q: And the Activity (A2780 [5])?
A: Its Activity is 14.48%.

Q: What about the Activity (A2780 [6]) of the same compound?
A: Its Activity is 43.3%.

Q: What about the “fold change (FC)” value (A2780 [7]) of the same compound?
A: The value was 5.4.

Q: What about the IC50 (PANC-1) of the same compound?
A: Its IC50 is 6.4 µM.

Q: What about the Activity (A2780 [8]) of the same compound?
A: Its Activity is 10.48%.

Q: And the Activity (A2780 [9])?
A: The Activity was 43.65%.

Q: And the “fold change (FC)” value (A2780 [10])?
A: Its value is 0.3.

Q: What about the IC50 (WISH) of the same compound?
A: Its IC50 is no less than 100 µM.

Q: What about the “fold change (FC)” value (A2780 [11]) of the same compound?
A: The value was 8.08.

Q: What about the “fold change (FC)” value (A2780 [12]) of the same compound?
A: Its value is 6.09.

Q: And the “fold change (FC)” value (A2780 [13])?
A: Its value is 6.7.

Q: What about the Activity (A2780 [14]) of the same compound?
A: Its Activity is 46.2%.

Q: How did the IC50 (A2780 [1]) turn out when `COc1cc([C@H]2c3cc(O)c(OC)cc3/C(=C\C(=O)NCCc3ccc(O)cc3)[C@H]2C(=O)NCCc2ccc(O)cc2)ccc1O` was run?
A: Its IC50 is 31.2 µM.

Q: What about the IC50 (PANC-1) of the same compound?
A: The IC50 was 24.1 µM.

Q: `C#Cc1cccc(Nc2ncnc3cc(OCCOC)c(OCCOC)cc23)c1` [ERLOTINIB] was tested. Which IC50 (A2780 [1]) did it give?
A: The IC50 was 1.13 µM.

Q: And the IC50 (PANC-1)?
A: Its IC50 is 2.17 µM.

Q: How did the IC50 (A2780 [1]) turn out when `COc1cc(/C=C/C(=O)NCCc2ccc(O)cc2)ccc1O` [N-TRANS-FERULOYL TYRAMINE] was run?
A: Its IC50 is 9.1 µM.

Q: And the IC50 (PANC-1)?
A: Its IC50 is 3.4 µM.

From ChEMBL document CHEMBL6083195, “Cornulacin: a new isoflavone from Cornulaca monacantha and its isolation, structure elucidation and cytotoxicity through EGFR-mediated apoptosis” (RSC Med Chem, 2024)
